Results as given in patent publication US9580430B2, “9H-pyrimido[4,5-B]indoles and related analogs as BET bromodomain inhibitors” (THE REGENTS OF THE UNIVERSITY OF MICHIGAN, priority 2014, dated 2017).

Legend:
MOLM-13 = assay: Cell growth inhibition, MOLM-13 leukemia cells (CellTiter-Glo); type: cell-based; settings: Homo sapiens, MOLM-13, 96 h; 4 days; read-out: IC50 (nM) MOLM-13 Cell Line (CellTiter-Glo assay)
Summary of the method: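 MOLM-13 leukemia cells treated with compounds; viability read by CellTiter-Glo luminescence after 10-20 min reagent incubation at room temperature. IC50 derived from luminescent signal.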

recombinant BRD4 BD2 = biological target: T1, recombinant BRD4 BD2 (Homo sapiens, UniProt O60885); assay: Competitive fluorescence-polarization (FP) binding assay, BRD4 BD2; settings: competitive FP assay; protein 6 nM, probe […]; read-out: IC50 (nM) BRD4 BD2; further: probe 1.5 nM
T1 construct: for recombinant BRD4 BD1 and BRD4 BD2 proteins
Summary of the method: (§1)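 FP competition with FAM-labelled probe (ZBA248 or BRD-1F) against preincubated protein/probe complex; BD1 at 10 nM and BD2 at 6 nM final, in 100 mM potassium phosphate pH 6.5, 0.01% Triton X-100. 30 min, room temperature. IC50 by nonlinear regression; Ki also derived, using probe Kd from protein saturation.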

recombinant BRD4 BD1 = biological target: T2, recombinant BRD4 BD1 (Homo sapiens, UniProt O60885); assay: Competitive fluorescence-polarization (FP) binding assay, BRD4 BD1; settings: competitive FP assay; protein 10 nM, probe […]; read-out: IC50 (nM) BRD4 BD1; further: probe 1.5 nM
T2 construct: for recombinant BRD4 BD1 and BRD4 BD2 proteins
Summary of the method: as §1

MDA-MB-436 = assay: Cell growth inhibition, MDA-MB-436 breast cancer cells (WST-8); type: cell-based; settings: Homo sapiens, MDA-MB-436, 96 h; 4 days; read-out: IC50 (nM) MDA-MB-436 Cell Line (WST assay)
Summary of the method: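 IC50 was computed from WST-8-based cell counting in MDA-MB-436 cells, with absorbance read at 450 nm.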

COc1cc2c(cc1-c1c(C)noc1C)[nH]c1nc(C)nc(Nc3c4c(nn3CCO)CCC4)c12 [Cpd. No. 150, 2-(3-((7-(3,5-Dimethylisoxazol-4-yl)-6-methoxy-2-methyl-9H-pyrimido[4,5-b]indol-4-yl)amino)-5,6-dihydrocyclopenta[c]pyrazol-2(4H)-yl)ethanol] gave an IC50 (MOLM-13) of 7.2 nM, an IC50 (recombinant BRD4 BD2) of 7.2 nM and an IC50 (recombinant BRD4 BD1) of 9.6 nM. It also gave an IC50 (MDA-MB-436) of 29.8 nM.
With COc1cc2c(cc1-c1c(C)noc1C)[nH]c1nc(C)nc(Nc3cccc4nc(C)ccc34)c12 [Cpd. No. 228, 7-(3,5-dimethylisoxazol-4-yl)-6-methoxy-2-methyl-N-(2-methylquinolin-5-yl)-9H-pyrimido[4,5-b]indol-4-amine] the IC50 (MOLM-13) was 87 nM, the IC50 (recombinant BRD4 BD2) was 26 nM and the IC50 (recombinant BRD4 BD1) was 25 nM. It also gave an IC50 (MDA-MB-436) of 129 nM.
COc1cc2c(cc1-c1c(C)noc1C)[nH]c1nc(C)nc(Nc3c(C)nn4ccccc34)c12 [Cpd. No. 15, 7-(3,5-Dimethylisoxazol-4-yl)-6-methoxy-2-methyl-N-(2-methylpyrazolo[1,5-a]pyridin-3-yl)-9H-pyrimido[4,5-b]indol-4-amine] showed an IC50 (MOLM-13) of 5.1 nM, an IC50 (recombinant BRD4 BD2) of 18.8 nM and an IC50 (recombinant BRD4 BD1) of 10.1 nM. The IC50 (MDA-MB-436) was 33.7 nM.
In the case of COc1cc2c(cc1-c1c(C)noc1C)[nH]c1nc(C)nc(Nc3noc(C)c3C)c12 [Cpd. No. 222, N-(7-(3,5-dimethylisoxazol-4-yl)-6-methoxy-2-methyl-9H-pyrimido[4,5-b]indol-4-yl)-4,5-dimethylisoxazol-3-amine], the IC50 (MOLM-13) is reported as 629 nM, the IC50 (recombinant BRD4 BD2) is reported as 276 nM and the IC50 (recombinant BRD4 BD1) is reported as 183 nM. The IC50 (MDA-MB-436) was 731 nM.
Work on COc1cc2c(cc1-c1c(C)noc1C)[nH]c1nc(C)nc(Nc3cc(C4(C)CC4)nn3C)c12 [Cpd. No. 251, 7-(3,5-dimethylisoxazol-4-yl)-6-methoxy-2-methyl-N-(1-methyl-3-(1-methylcyclopropyl)-1H-pyrazol-5-yl)-9H-pyrimido[4,5-b]indol-4-amine] yielded an IC50 (MOLM-13) of 11 nM, an IC50 (recombinant BRD4 BD2) of 5.5 nM and an IC50 (recombinant BRD4 BD1) of 9 nM. It also gave an IC50 (MDA-MB-436) of 23 nM.
In the case of CCc1nn(C)c(Nc2nc(C)nc3[nH]c4cc(-c5c(C)noc5C)c(OC)cc4c23)c1C [Cpd. No. 169, 7-(3,5-dimethylisoxazol-4-yl)-N-(3-ethyl-1,4-dimethyl-1H-pyrazol-5-yl)-6-methoxy-2-methyl-9H-pyrimido[4,5-b]indol-4-amine], the IC50 (MOLM-13) is reported as 63.3 nM, the IC50 (recombinant BRD4 BD2) is reported as 23 nM and the IC50 (recombinant BRD4 BD1) is reported as 14.3 nM. It also gave an IC50 (MDA-MB-436) of 93.9 nM.
For COc1cc2c(cc1-c1c(C)noc1C)[nH]c1nc(C)nc(Nc3nn(C)c4c3CCCC4)c12 [Cpd. No. 124, 7-(3,5-Dimethylisoxazol-4-yl)-6-methoxy-2-methyl-N-(1-methyl-4,5,6,7-tetrahydro-1H-indazol-3-yl)-9H-pyrimido[4,5-b]indol-4-amine], the IC50 (MOLM-13) was 41.9 nM, the IC50 (recombinant BRD4 BD2) was 29.5 nM and the IC50 (recombinant BRD4 BD1) was 5 nM. The IC50 (MDA-MB-436) was 58.3 nM.
In the case of COc1cc2c(cc1-c1c(C)noc1C)[nH]c1nc(C)nc(Nc3cnc4ccccn34)c12 [Cpd. No. 99, 7-(3,5-dimethylisoxazol-4-yl)-N-(imidazo[1,2-a]pyridin-3-yl)-6-methoxy-2-methyl-9H-pyrimido[4,5-b]indol-4-amine], the IC50 (MOLM-13) is reported as 206 nM, the IC50 (recombinant BRD4 BD2) is reported as 87 nM and the IC50 (recombinant BRD4 BD1) is reported as 47 nM. It also gave an IC50 (MDA-MB-436) of 307 nM.
In the case of COc1cc2c(cc1-c1c(C)noc1C)[nH]c1nc(C)nc(Nc3c(-c4ccccc4)nn(C(C)C)c3C)c12 [Cpd. No. 4, 7-(3,5-Dimethylisoxazol-4-yl)-N-(1-isopropyl-5-methyl-3-phenyl-1H-pyrazol-4-yl)-6-methoxy-2-methyl-9H-pyrimido[4,5-b]indol-4-amine], the IC50 (MOLM-13) is reported as 69.3 nM, the IC50 (recombinant BRD4 BD2) is reported as 21.7 nM and the IC50 (recombinant BRD4 BD1) is reported as 52.9 nM. It also gave an IC50 (MDA-MB-436) of 249 nM.
COc1cc2c(cc1-c1c(C)noc1C)[nH]c1nc(C)nc(Nc3c(C(C)C)nn(C)c3C(C)C)c12 [Cpd. No. 242, N-(3,5-diisopropyl-1-methyl-1H-pyrazol-4-yl)-7-(3,5-dimethylisoxazol-4-yl)-6-methoxy-2-methyl-9H-pyrimido[4,5-b]indol-4-amine] was tested, and the IC50 (MOLM-13) was 24 nM, the IC50 (recombinant BRD4 BD2) was 12 nM and the IC50 (recombinant BRD4 BD1) was 9 nM. The IC50 (MDA-MB-436) was 47 nM.
With COc1cc2c(cc1-c1c(C)noc1C)[nH]c1nc(C)nc(Nc3cc(C4CC4)nn3C)c12 [Cpd. No. 121, N-(3-Cyclopropyl-1-methyl-1H-pyrazol-5-yl)-7-(3,5-dimethylisoxazol-4-yl)-6-methoxy-2-methyl-9H-pyrimido[4,5-b]indol-4-amine] the IC50 (MOLM-13) was 11.7 nM, the IC50 (recombinant BRD4 BD2) was 3.2 nM and the IC50 (recombinant BRD4 BD1) was 1.6 nM. For the same compound, the IC50 (MDA-MB-436) was 11.2 nM.
